Experimental data: PMC9930781, “Design, synthesis, docking, and anticancer evaluations of new thiazolo[3,2-a] pyrimidines as topoisomerase II inhibitors” (Journal of Enzyme Inhibition and Medicinal Chemistry, 2023)
Read-outs that look alike come from different tables or passages of the source.

Columns and labels:
human topoisomerase II = human topoisomerase II (Homo sapiens, UniProt P11388); experiment: DNA Topo II inhibition (kDNA decatenation) assay; format: biochemical
Experimental: The ATP-dependent decatenation of kinetoplast DNA (kDNA) obtained from Crithidia fasciculata, which consists of a network of numerous minicircles (2.3 Kb) and some maxicircles, was used to measure topoisomerase II inhibition. Reactions took place in 20 μL and comprised topoisomerase II, 200–300 ng of kDNA, and 120 mM KCl with 50 mM Tris-HCl, pH 8, 10 mM MgCl2, 0.5 mM ATP, and 0.5 mM dithiothreitol. In preliminary tests, the quantity of topoisomerase II (5 units) was changed to decatenate almost 100% of the kDNA under these assay circumstances. […] The products in the reaction mixture were separated by a 1% agarose gel after the reaction was complete and then could be seen after being stained with ethidium bromide (0.2 μg/mL). The gels were run at 100 V for about 40 min and visualised under UV transillumination.
This assay is based on the fact that human Topo II can decatenate interlinked double-stranded DNA molecules.

[1] = In vitro cytotoxicity on WI-38 human cell line (MTT); format: cell-based; conditions: WI-38 normal fibroblast cells, WI-38 normal fibroblasts
Experimental: Cell line cells were provided from the American Type Culture Collection cultured in DMEM (Invitrogen/Life Technologies) with 10% FBS (Hyclone), 1% penicillin-streptomycin, and 10 μg/mL insulin (Sigma). The remainder of the chemicals and reagents were provided by either Sigma or Invitrogen. Prior to the MTT assay, plated cells were incubated for 24 h in a 96-well plate with 100 μl of the test substance per well and 100 μl of complete growth medium (cell density 1.2–1.8 × 10,000 cells/well). Cultures were transferred from the incubator and placed in a sterile work area or laminar flow hood. Then, 10% of the culture medium volume of reconstituted MTT was added, and the cultures were incubated for an additional 2 h. After that, cultures were taken out of the incubator, and the formazan crystals were dissolved using MTT solubilising solution [M-8910] in an amount equal to the volume of the original culture medium. The absorbance at 570 nm was measured. Finally, the IC50 of the test compound compared to the reference was calculated using the GraphPad Prism software.

A549 cells [2] = experiment: Cell cycle analysis by flow cytometry; format: cell-based, human; conditions: A549, 4c at IC50 (2 nM), 24 h (b61 also says 48 h)
Experimental: Briefly, a six-well plate containing lung cancer (A549) cells was seeded with 1 × 10^5 cells per well and then incubated for 24 h. 2 nM of compound 4c or 0.1% DMSO was applied to the cells for 24 h. Following that, cells were gathered and fixed in ice-cold 70% ethanol at 4 °C for 12 h. The cells were then rinsed with cold Phosphate Buffer Saline (PBS) and incubated for 30 min at 37 °C in 0.5 ml of PBS after the ethanol was removed. Propidium iodide was used to stain the cells for 30 min in the dark. DNA content was determined using a flow cytometer.
The cell cycle is required for cell division and replication. The cell cycle was divided into four distinct phases: G1 phase ([…]), S phase (synthesis), G2 phase (interphase), and M phase (mitosis). The G1 phase, also known as the post-mitotic pre-synthesis phase, is distinguished by direct cell division. DNA replication identifies the S phase. The G2 phase, premitotic, or post-synthetic phase, which can be considered the actual division, is when the cell prepares to split into two cells. Finally, the doubled DNA organised in chromosomes is separated during the M- or mitosis-phase division. Many anticancer drugs cause apoptosis, cell cycle arrest, or a combination of both as part of their cytotoxic action.

A549 cells [3] = experiment: Annexin V-FITC apoptosis assay; format: cell-based, human
Experimental: Each well of a 6-well plate received 1 × 10^5 conc. lung cancer (A549) cells that were then incubated for 24 h. The cells were then exposed for 24 h to 2 nM compound 4c or (0.1%) DMSO before being harvested, washed with PBS, and stained for 15 min at room temperature in the dark with annexin V-FITC and PI in binding buffer ([…] at pH 7.4). The flow cytometer was then used to examine the cells.
Apoptotic cell death is a method by which an anticancer agent destroys tumour cells. Therefore, compound 4c was additionally estimated through an Annexin V-FITC experiment utilising A549 cells to evaluate if the cytotoxic action of the novel compound is related to necrosis or apoptosis.

[4] = test system: MCF7 breast cancer cell line; experiment: MTT cytotoxicity assay, MCF7; conditions: SI = IC50 normal cell (WI-38)/IC50 cancer cell (MCF7)
Experimental: (§1) The MTT test was used to evaluate the inhibitory effects of the substances on cell proliferation in the aforementioned cell lines. This colorimetric assay targets the mitochondrial succinate dehydrogenase of living cells to change yellow tetrazolium bromide (MTT) to a purple formazan derivative. […] Then, the cells were incubated for 24 h and exposed to various chemical concentrations. 20 μL of a 5 mg/mL MTT solution was applied after a 24-h drug treatment period and incubated for 4 h. To dissolve the produced purple formazan, each well receives 100 μL of dimethyl sulfoxide (DMSO). […] The formula for calculating the relative percentage of cell viability was (A570 of treated samples/A570 of the untreated sample) × 100.
The newly prepared compounds were screened against three cancer cell lines: namely, breast cancer cell line MCF7, non-small cell lung cancer (NSCLC) cell line A549, and renal cancer cell line A498, using the MTT colorimetric assay.

[5] = test system: A549 non-small cell lung cancer (NSCLC) cell line; experiment: MTT cytotoxicity assay, A549
Experimental: as §1

[6] = test system: A498 renal cell carcinoma cell line; experiment: MTT cytotoxicity assay, A498
Experimental: as §1

Chain of human topoisomerase II (P11388 whole entry): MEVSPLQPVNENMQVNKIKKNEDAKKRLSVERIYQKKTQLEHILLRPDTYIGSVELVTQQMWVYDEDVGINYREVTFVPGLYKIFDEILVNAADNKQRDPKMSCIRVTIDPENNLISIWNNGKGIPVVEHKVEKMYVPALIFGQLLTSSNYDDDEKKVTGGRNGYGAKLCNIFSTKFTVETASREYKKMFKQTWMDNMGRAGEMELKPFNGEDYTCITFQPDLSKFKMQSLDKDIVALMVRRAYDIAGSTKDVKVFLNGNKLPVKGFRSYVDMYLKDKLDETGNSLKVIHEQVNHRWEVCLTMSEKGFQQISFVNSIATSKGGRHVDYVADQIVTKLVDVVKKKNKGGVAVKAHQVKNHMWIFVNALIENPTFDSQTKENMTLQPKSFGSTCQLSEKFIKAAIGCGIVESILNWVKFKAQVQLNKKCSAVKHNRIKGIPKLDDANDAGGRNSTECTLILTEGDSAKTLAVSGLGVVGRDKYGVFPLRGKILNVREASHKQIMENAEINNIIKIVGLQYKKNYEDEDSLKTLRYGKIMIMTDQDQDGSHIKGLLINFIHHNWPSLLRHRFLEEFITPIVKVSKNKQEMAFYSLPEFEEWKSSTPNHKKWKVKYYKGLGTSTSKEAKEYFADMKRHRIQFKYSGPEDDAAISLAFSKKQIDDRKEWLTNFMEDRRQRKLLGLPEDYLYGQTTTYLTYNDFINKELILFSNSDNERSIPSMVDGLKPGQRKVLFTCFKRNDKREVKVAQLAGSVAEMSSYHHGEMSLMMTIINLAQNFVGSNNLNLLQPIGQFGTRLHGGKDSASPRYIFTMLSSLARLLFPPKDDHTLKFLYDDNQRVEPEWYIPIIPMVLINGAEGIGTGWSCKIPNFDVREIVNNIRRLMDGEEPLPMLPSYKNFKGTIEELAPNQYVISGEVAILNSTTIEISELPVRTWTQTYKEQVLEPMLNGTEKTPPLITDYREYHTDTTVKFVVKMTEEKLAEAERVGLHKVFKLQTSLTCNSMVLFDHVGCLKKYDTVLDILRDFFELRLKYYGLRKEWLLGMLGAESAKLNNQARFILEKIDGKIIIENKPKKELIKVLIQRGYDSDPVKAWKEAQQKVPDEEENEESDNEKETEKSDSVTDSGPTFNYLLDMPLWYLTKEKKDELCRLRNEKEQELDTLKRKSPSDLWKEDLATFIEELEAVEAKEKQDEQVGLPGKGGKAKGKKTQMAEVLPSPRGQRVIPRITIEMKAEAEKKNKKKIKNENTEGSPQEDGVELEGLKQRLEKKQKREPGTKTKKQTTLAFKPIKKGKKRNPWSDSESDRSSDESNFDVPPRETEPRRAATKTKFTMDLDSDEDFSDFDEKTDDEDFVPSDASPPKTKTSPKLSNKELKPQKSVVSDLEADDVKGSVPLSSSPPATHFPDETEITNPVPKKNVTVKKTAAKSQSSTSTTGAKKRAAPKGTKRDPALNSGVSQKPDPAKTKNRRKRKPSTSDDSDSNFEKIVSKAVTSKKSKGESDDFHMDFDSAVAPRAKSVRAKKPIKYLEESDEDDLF

%inh TOPO II (human topoisomerase II; conc 0.1 (μM)): 44%
%inh TOPO II (human topoisomerase II; conc 1 (μM)): 60%
%inh TOPO II (human topoisomerase II; conc 10 (μM)): 79%
%inh TOPO II (human topoisomerase II; conc 100 (μM)): 92%
IC50 (human topoisomerase II; kDNA decatenation, four concentrations 0.1-100 µM, mean ± SD of two independent assays): 230 ± 10 nM
Topo II potency relative to Doxorubicin (IC50 ratio) (human topoisomerase II; versus IC50 of Doxorubicin): 3.6 fold
Topo II potency relative to Etoposide (IC50 ratio) (human topoisomerase II; versus IC50 of Etoposide): 1.4 fold
Structure (SMILES): CCOC(=O)C1=C(C)N=C2SC=C(NC(=O)c3c(Cl)cc(Cl)cc3Cl)N2C1c1ccc(OC)cc1OC (stereo not drawn) [Compound 4c, Ethyl 5–(2,4-dimethoxyphenyl)-7-methyl-3–(2,4,6-trichlorobenzamido)-5H-thiazolo[3,2-a]pyrimidine-6-carboxylate]
IC50 at 24 h [1]: 15500 ± 840 nM
%G2/M (A549 cells [2]; control 13.97): 4.04%
%S (A549 cells [2]; control 29.64): 26.89%
%G0–G1 (A549 cells [2]; control 56.39): 69.07%
elevation in the total apoptosis versus control (A549 cells [3]; A549): 26.47 fold
increase in early apoptotic cells versus control (A549 cells [3]; A549): 61.92 fold
increase in late apoptotic cells versus control (A549 cells [3]; A549): 97 fold
increase in the percentage of necrosis versus control (A549 cells [3]; A549): 2.5 fold
late apoptotic cells (A549 cells [3]; A549, 4c at IC50 (2 nM), control 0.13%): 12.61%
early apoptotic cells (A549 cells [3]; A549, 4c at IC50 (2 nM), control […]): 24.15%
Selectivity index (SI) MCF7 [4]: 7770
IC50 ([5]; Homo sapiens, A549, 24 h, read-out: Cytotoxicity IC50 A549± SD, MTT, A549, 24 h treatment, mean ± SD of two independent assays): 2 nM
Selectivity index (SI) A549 ([5]; SI = IC50 normal cell (WI-38)/IC50 cancer cell (A549)): 7770
IC50 ([5]; read-out: Cytotoxicity IC50 A549± SD, MTT, A549, 24 h treatment, mean ± SD of two independent assays): 1 nM
IC50 ([6]; Homo sapiens, A498, 24 h, read-out: Cytotoxicity IC50 A498± SD, MTT, A498, 24 h treatment, mean ± SD of two independent assays): 1 nM
Selectivity index (SI) A498 ([6]; SI = IC50 normal cell (WI-38)/IC50 cancer cell (A498)): 15540
IC50 ([6]; read-out: Cytotoxicity IC50 A498± SD, MTT, A498, 24 h treatment, mean ± SD of two independent assays): 2 nM
